Measurements reported in US20150126534A1, “ENZYME AND RECEPTOR MODULATION” (Chroma Therapeutics Ltd, priority 2005, published 2015).
Each block holds one compound with its values, some of them ahead of it.

Key:
[1] = system: U937 cells (monocytic cell line); assay: Cell proliferation inhibition assay (WST-1), U937; assay type: cell-based; conditions: for IC50: Homo sapiens, U-937, read-out: Cell proliferation IC50 nM (U937 cells); for selectivity between a monocytic and non-monocytic cell line (cell proliferation): U937 versus HCT116
Protocol: (§1) Following 24 h of growth cells were treated with compound. Plates were then re-incubated for a further 72-96 h before a WST-1 cell viability assay was conducted according to the suppliers (Roche Applied Science) instructions.
(§2) Data were expressed as a percentage inhibition of the control, measured in the absence of inhibitor, as follows: —
(§3) where S^i is the signal in the presence of inhibitor and S^o is the signal in the presence of DMSO.
(§4) Dose response curves were generated from 8 concentrations (top final concentration 10 μM, with 3-fold dilutions), using 6 replicates.

[2] = system: HCT116 (non-monocytic cell line); assay: Cell proliferation inhibition assay (WST-1), HCT116; assay type: cell-based; conditions: for Ratio IC50 cell/enzyme: HCT116 cell proliferation IC50 / DHFR enzyme IC50; for IC50: Homo sapiens, HCT-116, HCT116 non-monocytic cell line, read-out: Cell proliferation IC50 nM (HCT116)
Protocol: as §1, §2, §3, §4

[3] = system: carboxylesterase (U937 cell extract); assay: Broken cell carboxylesterase assay, U937 cell extract; assay type: in vitro ADME; conditions: U937 versus HCT116
Protocol: U937 or HCT 116 tumour cells (˜10^9) were washed in 4 volumes of Dulbeccos PBS (˜1 litre) and pelleted at 525 g for 10 min at 4° C. This was repeated twice and the final cell pellet was resuspended in 35 ml of cold homogenising buffer (Trizma 10 mM, NaCl 130 mM, CaCl2 0.5 mM pH 7.0 at 25° C.). Homogenates were prepared by nitrogen cavitation (700 psi for 50 min at 4° C.). The homogenate was kept on ice and supplemented with a cocktail of inhibitors at final concentrations of: • Leupeptin 1 μM • Aprotinin 0.1 μM • E64 8 μM • Pepstatin 1.5 μM • Bestatin 162 μM • Chymostatin 33 μM
After clarification of the cell homogenate by centrifugation at 525 g for 10 min, the resulting supernatant was used as a source of esterase activity and was stored at −80° C. until required.
Hydrolysis of esters to the corresponding carboxylic acids can be measured using the cell extract, prepared as above. To this effect cell extract (˜30 μg/total assay volume of 0.5 ml) was incubated at 37° C. in a Tris-HCl 25 mM, 125 mM NaCl buffer, pH 7.5 at 25° C. At zero time the ester (substrate) was then added at a final concentration of 2.5 μM and the samples were incubated at 37° C. for the appropriate time (usually 0 or 80 min). […] After centrifugation at 12000 g for 5 min, samples were analysed for the ester and its corresponding carboxylic acid at room temperature by LCMS (Sciex API 3000, HP1100 binary pump, CTC PAL). […]

[4] = system: HDAC - Hela cell nuclear extract; assay: Histone deacetylase inhibitory activity assay (Fluor de Lys); assay type: biochemical; conditions: read-out: Enzyme inhibition IC50 nM (HDAC - Hela cell nuclear extract)
Protocol: The ability of compounds to inhibit histone deacetylase activities was measured using the commercially available HDAC fluorescent activity assay from Biomol. […] Histone deacetylase activity from crude nuclear extract derived from HeLa cells was used for screening. The preparation, purchased from 4C (Seneffe, Belgium), was prepared from HeLa cells harvested whilst in exponential growth phase. […] Acid. […] The final buffer composition was 20 mM Hepes, 100 mM KCl, 0.2 mM EDTA, 0.5 mM DTT, 0.2 mM PMSF and 20% (v/v) glycerol.

[5] = target: T1, PI 3-kinase γ (Homo sapiens, UniProt P48736); assay: PI 3-kinase γ inhibition assay (HTRF); assay type: biochemical; conditions: 100 μM MgATP; read-out: Enzyme inhibition IC50 nM (PI3-Kinase)
T1 construct: recombinant N-terminally His6-tagged, full length human enzyme; His6 (N); purchased Upstate (Dundee, UK), assay run by the vendor; host or cells: baculovirus / Sf21 insect cells
T1 sequence (P48736 whole entry): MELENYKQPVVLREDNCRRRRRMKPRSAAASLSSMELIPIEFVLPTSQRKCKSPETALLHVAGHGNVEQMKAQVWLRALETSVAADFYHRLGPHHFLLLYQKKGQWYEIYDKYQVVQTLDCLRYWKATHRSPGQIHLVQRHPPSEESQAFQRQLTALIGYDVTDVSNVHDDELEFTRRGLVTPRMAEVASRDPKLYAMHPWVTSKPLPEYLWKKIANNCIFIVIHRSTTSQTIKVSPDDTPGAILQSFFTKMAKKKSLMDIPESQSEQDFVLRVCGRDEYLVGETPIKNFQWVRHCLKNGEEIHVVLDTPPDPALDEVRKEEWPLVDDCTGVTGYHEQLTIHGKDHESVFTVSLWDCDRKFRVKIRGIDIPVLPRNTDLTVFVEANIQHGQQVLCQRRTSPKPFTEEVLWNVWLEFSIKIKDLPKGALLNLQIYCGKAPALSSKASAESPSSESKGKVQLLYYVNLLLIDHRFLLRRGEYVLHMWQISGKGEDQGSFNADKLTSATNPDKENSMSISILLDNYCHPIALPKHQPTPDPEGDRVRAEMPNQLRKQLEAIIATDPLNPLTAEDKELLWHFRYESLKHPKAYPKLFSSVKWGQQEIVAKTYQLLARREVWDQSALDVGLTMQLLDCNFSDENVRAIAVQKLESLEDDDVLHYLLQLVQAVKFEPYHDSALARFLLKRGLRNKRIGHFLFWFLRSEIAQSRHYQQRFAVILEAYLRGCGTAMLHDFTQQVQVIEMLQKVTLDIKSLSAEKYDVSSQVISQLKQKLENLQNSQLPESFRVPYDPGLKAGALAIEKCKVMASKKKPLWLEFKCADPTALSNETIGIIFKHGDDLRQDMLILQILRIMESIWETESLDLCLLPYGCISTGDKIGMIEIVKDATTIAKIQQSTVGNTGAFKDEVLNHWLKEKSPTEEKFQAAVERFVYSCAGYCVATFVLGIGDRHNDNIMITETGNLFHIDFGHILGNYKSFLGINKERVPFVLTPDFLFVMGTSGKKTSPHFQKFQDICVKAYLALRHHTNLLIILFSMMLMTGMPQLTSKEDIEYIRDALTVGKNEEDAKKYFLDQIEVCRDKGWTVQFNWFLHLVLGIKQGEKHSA
Excerpt: The measurement of PI 3-kinase γ activity is dependent upon the specific and high affinity binding of the GRP1 pleckstrin homology (PH) domain to PIP3, the product of PI 3-kinase activity. A complex is formed between europium-labelled anti-GST monoclonal antibody, a GST-tagged GRP1 PH domain, biotinylated PIP3 and streptavidin-allophycocyanin (APC). This complex generates a stable time-resolved fluorescence resonance energy transfer (FRET) signal, which is diminished by competition of PIP3, generated in the PI 3-kinase assay, with the biotinylated PIPS.
The reaction was initiated by the addition of the MgATP mix. After incubation for 30 minutes at room temperature, the reaction was stopped by the addition of 5 μl of stop solution containing EDTA and biotinylated phosphatidylinositol-3,4,5-trisphosphate. Finally, 5 μl of detection buffer was added, which contained europium-labelled anti-GST monoclonal antibody, GST-tagged GRP1 PH domain and streptavidin-APC. The plate was then read in time-resolved fluorescence mode and the homogenous time-resolved fluorescence (HTRF) signal was determined according to the formula HTRF=10000×(Em665 nm/Em620 nm).
Duplicate data points were generated from a ½ log dilution series of a stock solution of compound in DMSO. Nine dilutions steps were made from a top final concentration of 10 μM, and a ‘no compound’ blank was included. HTRF ratio data were transformed into % activity of controls and analysed with a four parameter sigmoidal dose-response (variable slope) application. The concentration giving 50% inhibition (1050) was determined.

[6] = system: TNFα production in human whole blood; assay: LPS-stimulation of human whole blood, TNF-α ELISA; assay type: cell-based; conditions: for IC50: Homo sapiens, LPS 100 ng/ml, 6 h, read-out: Inhibition of TNFα production in human whole blood IC50; for Ratio IC50 WB/enzyme: whole blood TNFα IC50 / PI3-Kinase IC50
Protocol: Whole blood was taken by venous puncture using heparinised vacutainers (Becton Dickinson) and diluted in an equal volume of RPMI1640 tissue culture media. 100 μl was plated in V-bottomed 96 well tissue culture plates. Inhibitor was added in 100 μl of RPMI1640 media, and 2 h later the blood was stimulated with LPS (E coli strain 005:B5, Sigma) at a final concentration of 100 ng/ml and incubated at 37° C. in 5% CO2 for 6 h. TNF-α levels were measured from cell-free supernatants by sandwich ELISA (R&D Systems #QTA00B).

[7] = U937 cell proliferation IC50 / DHFR enzyme IC50

- IC50 ([1]; U937 monocytic cell line): 310 nM
- IC50 [2]: 6900 nM
SMILES: Cc1c(CNc2ccc(OCC[C@H](NC3CCCCC3)C(=O)OC3CCCC3)cc2)cnc2nc(N)nc(N)c12 [Compound 4, (S)-2-Cyclohexylamino-4-{4-[(2,4-diamino-5-methyl-pyrido[2,3-d]pyrimidin-6-ylmethyl)-amino]-phenoxy}-butyric acid cyclopentyl ester]
- Ratio IC50 cell/enzyme [1, 7]: 0.3
- selectivity between a monocytic and non-monocytic cell line (cell proliferation) [1]: significantly more anti-proliferative in monocytic cell lines then non-monocytic cell lines
- Ratio IC50 cell/enzyme [2]: 6.6
- cleavage of ester in monocytic versus non-monocytic cell lines [3]: selective cleavage in monocytic but not non-monocytic cell lines

- IC50 ([1]; U937 monocytic cell line): 310 nM
- IC50 [2]: 6700 nM
SMILES: Cc1c(CNc2ccc(CN[C@@H](CC(C)C)C(=O)OC3CCCC3)cc2)cnc2nc(N)nc(N)c12 [Compound 5, (S)-2-{4-[(2,4-Diamino-5-methyl-pyrido[2,3-d]pyrimidin-6-ylmethyl)-amino]-benzylamino}-4-methyl-pentanoic acid cyclopentyl ester]
- Ratio IC50 cell/enzyme [1, 7]: 0.8
- selectivity between a monocytic and non-monocytic cell line (cell proliferation) [1]: significantly more anti-proliferative in monocytic cell lines then non-monocytic cell lines
- Ratio IC50 cell/enzyme [2]: 1.7
- cleavage of ester in monocytic versus non-monocytic cell lines [3]: selective cleavage in monocytic but not non-monocytic cell lines

- IC50 [4]: 100 nM
- IC50 ([1]; U937 monocytic cell line): 50 nM
SMILES: O=C(CCCCCCC(=O)Nc1cccc(CN[C@H](C(=O)OC2CCCC2)c2ccccc2)c1)NO [Compound 8, (S)-[3-(7-Hydroxycarbamoyl-heptanoylamino)-benzylamino]-phenyl-acetic acid cyclopentyl ester]
- Ratio IC50 cell/enzyme ([1]; U937 cell proliferation IC50 / HDAC enzyme IC50): 0.5

- IC50 [4]: 70 nM
- Cell proliferation IC50 nM (U937 cells) ([1]; U937 monocytic cell line): Inactive
SMILES: O=C(CCCCCCC(=O)Nc1cccc(CN[C@H](C(=O)O)c2ccccc2)c1)NO [Compound 9, (S)-[3-(7-Hydroxycarbamoyl-heptanoylamino)-benzylamino]-phenyl-acetic acid]

- IC50 [5]: 500 nM
- IC50 [6]: 8500 nM
SMILES: CC(=O)Nc1nc(C)c(-c2ccc(Cl)c(S(C)(=O)=O)c2)s1 [Compound 20, N-[5-(4-Chloro-3-methanesulfonyl-phenyl)-4-methyl-thiazol-2-yl]-acetamide, reference compound]
- Ratio IC50 WB/enzyme [6]: 17

- IC50 [5]: 2700 nM
- IC50 [6]: 400 nM
SMILES: Cc1nc(NC(=O)CC[C@H](N)C(=O)OC2CCCC2)sc1-c1ccc(Cl)c(S(C)(=O)=O)c1 [Compound 21, (S)-2-Amino-4-[5-(4-chloro-3-methanesulfonyl-phenyl)-4-methyl-thiazol-2-ylcarbamoyl]-butyric acid cyclopentyl ester]
- Ratio IC50 WB/enzyme [6]: 0.15

- IC50 [5]: 7100 nM
- IC50 [6]: 5200 nM
SMILES: Cc1nc(NC(=O)CC[C@H](N)C(=O)OC(C)(C)C)sc1-c1ccc(Cl)c(S(C)(=O)=O)c1 [Compound 23, (S)-2-Amino-4-[5-(4-chloro-3-methanesulfonyl-phenyl)-4-methyl-thiazol-2-ylcarbamoyl]-butyric acid tert-butyl ester]
- Ratio IC50 WB/enzyme [6]: 0.75
